Assay results published in ChEMBL document CHEMBL4507285, “Data for DCP probe MRL-SYKi” (2021).

Columns and labels:
Details in all cases: Compound concentration 100.0 nM
[1] = test system: ALK tyrosine kinase receptor (Homo sapiens), Q9UM73 [C1156Y]
[2] = test system: ALK tyrosine kinase receptor (Homo sapiens), Q9UM73 [L1196M]
[3] = target: Serine/threonine-protein kinase BRSK2 (Homo sapiens) (UniProt Q8IWQ3)
[4] = target: Cyclin-dependent kinase 11A (Homo sapiens) (UniProt Q9UQ88)
[5] = target: Cyclin-dependent kinase 4 (Homo sapiens) (UniProt P11802)
[6] = target: Cyclin-dependent kinase 5 (Homo sapiens) (UniProt Q00535)
[7] = target: Cyclin-dependent kinase-like 2 (Homo sapiens) (UniProt Q92772)
[8] = target: Cyclin-dependent kinase-like 3 (Homo sapiens) (UniProt Q8IVW4)
[9] = target: Cyclin-dependent kinase-like 5 (Homo sapiens) (UniProt O76039)
[10] = target: Macrophage colony-stimulating factor 1 receptor (Homo sapiens) (UniProt P07333)
[11] = target: Serine/threonine-protein kinase DCLK3 (Homo sapiens) (UniProt Q9C098)
[12] = target: Discoidin domain-containing receptor 2 (Homo sapiens) (UniProt Q16832)
[13] = test system: Epidermal growth factor receptor (Homo sapiens), P00533 [G719S]
[14] = target: Ephrin type-A receptor 5 (Homo sapiens) (UniProt P54756)
[15] = target: Ephrin type-B receptor 6 (Homo sapiens) (UniProt O15197)
[16] = target: Receptor tyrosine-protein kinase erbB-4 (Homo sapiens) (UniProt Q15303)
[17] = target: Mitogen-activated protein kinase 3 (Homo sapiens) (UniProt P27361)
[18] = target: Focal adhesion kinase 1 (Homo sapiens) (UniProt Q05397)
[19] = target: G protein-coupled receptor kinase 4 (Homo sapiens) (UniProt P32298)
[20] = target: Homeodomain-interacting protein kinase 4 (Homo sapiens) (UniProt Q8NE63)
[21] = target: Insulin-like growth factor 1 receptor (Homo sapiens) (UniProt P08069)
[22] = target: Insulin receptor (Homo sapiens) (UniProt P06213)
[23] = target: Interleukin-1 receptor-associated kinase 1 (Homo sapiens) (UniProt P51617)
[24] = target: Tyrosine-protein kinase Lck (Homo sapiens) (UniProt P06239)
[25] = target: Dual specificity mitogen-activated protein kinase kinase 3 (Homo sapiens) (UniProt P46734)
[26] = target: MAP kinase-interacting serine/threonine-protein kinase 1 (Homo sapiens) (UniProt Q9BUB5)
[27] = target: Serine/threonine-protein kinase Nek2 (Homo sapiens) (UniProt P51955)
[28] = target: Mitogen-activated protein kinase 11 (Homo sapiens) (UniProt Q15759)
[29] = target: Serine/threonine-protein kinase PAK 6 (Homo sapiens) (UniProt Q9NQU5)
[30] = target: Phosphatidylinositol 3-kinase C2 domain-containing subunit gamma (Homo sapiens) (UniProt O75747)
[31] = target: 1-phosphatidylinositol 3-phosphate 5-kinase (Homo sapiens) (UniProt Q9Y2I7)
[32] = target: cGMP-dependent protein kinase 2 (Homo sapiens) (UniProt Q13237)
[33] = target: cAMP-dependent protein kinase catalytic subunit PRKX (Homo sapiens) (UniProt P51817)
[34] = target: Serine/threonine-protein kinase PRP4 homolog (Homo sapiens) (UniProt Q13523)
[35] = test system: Proto-oncogene tyrosine-protein kinase receptor Ret (Homo sapiens), P07949 [M918T]
[36] = target: Dual serine/threonine and tyrosine protein kinase (Homo sapiens) (UniProt Q6XUX3)
[37] = target: Ribosomal protein S6 kinase alpha-1 (Homo sapiens) (UniProt Q15418)
[38] = target: SRSF protein kinase 1 (Homo sapiens) (UniProt Q96SB4)
[39] = target: Serine/threonine-protein kinase 33 (Homo sapiens) (UniProt Q9BYT3)
[40] = target: Serine/threonine-protein kinase TAO1 (Homo sapiens) (UniProt Q7L7X3)
[41] = target: Serine/threonine-protein kinase TAO2 (Homo sapiens) (UniProt Q9UL54)
[42] = target: TGF-beta receptor type-2 (Homo sapiens) (UniProt P37173)
[43] = target: Activated CDC42 kinase 1 (Homo sapiens) (UniProt Q07912)
[44] = target: Testis-specific serine/threonine-protein kinase 1 (Homo sapiens) (UniProt Q9BXA7)
[45] = target: Non-receptor tyrosine-protein kinase TYK2 (Homo sapiens) (UniProt P29597)
[46] = target: Mitogen-activated protein kinase kinase kinase 20 (Homo sapiens) (UniProt Q9NYL2)
Mitogen-activated protein kinase kinase kinase 20 (Homo sapiens), sequence (Q9NYL2 2-800 limits assumed): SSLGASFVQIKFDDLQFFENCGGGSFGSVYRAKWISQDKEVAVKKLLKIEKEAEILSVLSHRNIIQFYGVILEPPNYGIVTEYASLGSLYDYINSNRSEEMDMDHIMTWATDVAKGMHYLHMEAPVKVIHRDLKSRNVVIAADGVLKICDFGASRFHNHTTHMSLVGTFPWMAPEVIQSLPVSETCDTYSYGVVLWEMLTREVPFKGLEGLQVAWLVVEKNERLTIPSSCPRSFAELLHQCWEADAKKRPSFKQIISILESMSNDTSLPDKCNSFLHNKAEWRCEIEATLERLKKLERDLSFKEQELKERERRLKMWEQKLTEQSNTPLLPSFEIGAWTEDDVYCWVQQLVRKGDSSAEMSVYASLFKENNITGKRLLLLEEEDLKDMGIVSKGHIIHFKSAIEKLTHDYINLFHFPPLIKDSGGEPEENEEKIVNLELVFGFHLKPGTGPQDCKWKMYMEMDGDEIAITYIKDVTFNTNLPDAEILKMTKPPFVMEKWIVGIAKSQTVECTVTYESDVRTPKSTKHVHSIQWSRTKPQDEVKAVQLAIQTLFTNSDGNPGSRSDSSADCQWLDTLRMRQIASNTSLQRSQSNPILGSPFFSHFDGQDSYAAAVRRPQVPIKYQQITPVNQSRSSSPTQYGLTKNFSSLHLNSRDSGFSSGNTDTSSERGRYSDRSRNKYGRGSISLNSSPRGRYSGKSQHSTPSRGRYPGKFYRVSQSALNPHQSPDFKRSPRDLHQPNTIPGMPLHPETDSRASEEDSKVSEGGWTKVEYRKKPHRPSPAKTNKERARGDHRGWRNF

Insulin-like growth factor 1 receptor (Homo sapiens), sequence (P08069 31-736 limits assumed): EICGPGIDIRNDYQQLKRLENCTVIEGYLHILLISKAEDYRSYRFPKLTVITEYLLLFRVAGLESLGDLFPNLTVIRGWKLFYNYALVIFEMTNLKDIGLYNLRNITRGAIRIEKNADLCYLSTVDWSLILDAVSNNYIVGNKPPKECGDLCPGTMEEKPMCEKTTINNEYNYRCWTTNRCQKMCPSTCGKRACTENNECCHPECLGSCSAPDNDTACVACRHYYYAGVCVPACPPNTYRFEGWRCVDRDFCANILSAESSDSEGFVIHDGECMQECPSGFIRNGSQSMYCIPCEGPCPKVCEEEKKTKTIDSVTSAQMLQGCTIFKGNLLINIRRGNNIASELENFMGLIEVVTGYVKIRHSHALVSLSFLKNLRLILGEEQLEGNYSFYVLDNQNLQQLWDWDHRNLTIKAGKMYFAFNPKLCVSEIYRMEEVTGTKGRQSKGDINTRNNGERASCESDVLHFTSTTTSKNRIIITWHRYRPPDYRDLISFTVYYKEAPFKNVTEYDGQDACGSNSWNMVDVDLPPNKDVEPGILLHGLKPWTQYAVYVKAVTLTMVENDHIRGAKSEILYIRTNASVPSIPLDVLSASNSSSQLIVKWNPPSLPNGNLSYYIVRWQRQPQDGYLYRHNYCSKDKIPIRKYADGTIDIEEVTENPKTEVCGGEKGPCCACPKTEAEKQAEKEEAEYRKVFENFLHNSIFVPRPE
Insulin-like growth factor 1 receptor (Homo sapiens), sequence (P08069 741-1367 limits assumed): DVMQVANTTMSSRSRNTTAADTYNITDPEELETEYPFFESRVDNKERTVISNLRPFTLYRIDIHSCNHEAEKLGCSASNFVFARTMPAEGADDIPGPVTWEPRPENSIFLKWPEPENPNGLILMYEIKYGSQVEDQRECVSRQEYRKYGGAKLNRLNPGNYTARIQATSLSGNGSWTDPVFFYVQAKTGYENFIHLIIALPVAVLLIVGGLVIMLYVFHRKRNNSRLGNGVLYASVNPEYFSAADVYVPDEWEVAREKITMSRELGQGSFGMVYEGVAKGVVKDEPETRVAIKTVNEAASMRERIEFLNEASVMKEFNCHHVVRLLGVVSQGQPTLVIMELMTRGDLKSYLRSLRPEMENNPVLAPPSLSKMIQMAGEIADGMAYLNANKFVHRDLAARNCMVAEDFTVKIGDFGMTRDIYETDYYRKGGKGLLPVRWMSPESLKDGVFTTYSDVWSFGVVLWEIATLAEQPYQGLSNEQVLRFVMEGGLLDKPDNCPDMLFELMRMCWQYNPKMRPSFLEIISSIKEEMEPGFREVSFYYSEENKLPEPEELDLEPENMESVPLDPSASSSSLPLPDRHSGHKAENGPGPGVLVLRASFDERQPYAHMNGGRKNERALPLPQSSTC
1-phosphatidylinositol 3-phosphate 5-kinase (Homo sapiens), sequence (Q9Y2I7 whole entry): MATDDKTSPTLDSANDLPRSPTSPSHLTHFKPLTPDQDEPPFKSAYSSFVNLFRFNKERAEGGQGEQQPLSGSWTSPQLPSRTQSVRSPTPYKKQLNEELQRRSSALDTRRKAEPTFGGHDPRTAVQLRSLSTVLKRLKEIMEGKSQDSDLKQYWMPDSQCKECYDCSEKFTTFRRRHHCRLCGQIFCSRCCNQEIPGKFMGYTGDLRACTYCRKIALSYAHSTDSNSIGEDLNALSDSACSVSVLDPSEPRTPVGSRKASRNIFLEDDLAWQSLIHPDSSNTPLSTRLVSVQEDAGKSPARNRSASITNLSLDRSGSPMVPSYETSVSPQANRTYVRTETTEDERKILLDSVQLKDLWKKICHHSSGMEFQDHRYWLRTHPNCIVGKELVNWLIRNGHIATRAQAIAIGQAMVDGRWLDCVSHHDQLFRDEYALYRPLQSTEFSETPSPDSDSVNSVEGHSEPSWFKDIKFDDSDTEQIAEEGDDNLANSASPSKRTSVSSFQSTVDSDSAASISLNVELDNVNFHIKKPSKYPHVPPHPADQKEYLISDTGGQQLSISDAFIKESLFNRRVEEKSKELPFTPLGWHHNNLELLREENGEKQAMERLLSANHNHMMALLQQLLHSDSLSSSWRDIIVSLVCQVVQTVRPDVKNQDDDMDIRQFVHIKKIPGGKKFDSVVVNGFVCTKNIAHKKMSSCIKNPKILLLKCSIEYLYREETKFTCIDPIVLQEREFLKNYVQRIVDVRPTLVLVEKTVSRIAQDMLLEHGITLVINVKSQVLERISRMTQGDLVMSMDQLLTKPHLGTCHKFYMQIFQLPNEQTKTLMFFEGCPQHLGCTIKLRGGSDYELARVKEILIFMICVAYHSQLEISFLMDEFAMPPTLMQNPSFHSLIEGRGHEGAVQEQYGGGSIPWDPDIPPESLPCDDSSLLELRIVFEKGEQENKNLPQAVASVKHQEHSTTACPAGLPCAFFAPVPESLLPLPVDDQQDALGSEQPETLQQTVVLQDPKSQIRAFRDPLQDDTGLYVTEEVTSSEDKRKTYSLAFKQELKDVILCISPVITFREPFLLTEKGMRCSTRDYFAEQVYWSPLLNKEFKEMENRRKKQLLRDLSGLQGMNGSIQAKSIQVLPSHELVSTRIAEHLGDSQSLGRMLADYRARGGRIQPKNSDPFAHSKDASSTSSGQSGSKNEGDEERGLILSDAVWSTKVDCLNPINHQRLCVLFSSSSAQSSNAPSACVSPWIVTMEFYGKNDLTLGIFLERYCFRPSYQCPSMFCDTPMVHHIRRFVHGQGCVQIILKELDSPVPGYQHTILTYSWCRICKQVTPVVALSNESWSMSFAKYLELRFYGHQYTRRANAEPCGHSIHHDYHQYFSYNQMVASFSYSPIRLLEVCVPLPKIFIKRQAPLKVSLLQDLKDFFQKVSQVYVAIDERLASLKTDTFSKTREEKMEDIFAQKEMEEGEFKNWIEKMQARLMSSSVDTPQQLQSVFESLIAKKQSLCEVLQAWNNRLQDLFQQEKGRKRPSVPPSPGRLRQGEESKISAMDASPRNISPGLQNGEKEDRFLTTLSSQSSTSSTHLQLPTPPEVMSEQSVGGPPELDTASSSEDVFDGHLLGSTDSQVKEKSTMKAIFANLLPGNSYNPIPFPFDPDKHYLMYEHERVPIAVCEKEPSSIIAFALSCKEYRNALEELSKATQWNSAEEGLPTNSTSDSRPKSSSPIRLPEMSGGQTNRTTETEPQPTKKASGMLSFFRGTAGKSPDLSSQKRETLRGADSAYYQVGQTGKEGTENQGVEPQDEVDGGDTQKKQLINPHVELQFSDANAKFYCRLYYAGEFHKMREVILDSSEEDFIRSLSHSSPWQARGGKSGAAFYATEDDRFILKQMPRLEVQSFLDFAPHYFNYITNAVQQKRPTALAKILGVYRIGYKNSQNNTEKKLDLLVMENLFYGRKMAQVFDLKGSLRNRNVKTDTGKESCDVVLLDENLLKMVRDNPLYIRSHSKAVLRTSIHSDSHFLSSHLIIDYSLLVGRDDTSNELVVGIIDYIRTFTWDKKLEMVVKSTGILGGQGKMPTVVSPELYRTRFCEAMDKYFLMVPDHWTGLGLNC
Discoidin domain-containing receptor 2 (Homo sapiens), sequence (Q16832 whole entry, the tested form may be a part): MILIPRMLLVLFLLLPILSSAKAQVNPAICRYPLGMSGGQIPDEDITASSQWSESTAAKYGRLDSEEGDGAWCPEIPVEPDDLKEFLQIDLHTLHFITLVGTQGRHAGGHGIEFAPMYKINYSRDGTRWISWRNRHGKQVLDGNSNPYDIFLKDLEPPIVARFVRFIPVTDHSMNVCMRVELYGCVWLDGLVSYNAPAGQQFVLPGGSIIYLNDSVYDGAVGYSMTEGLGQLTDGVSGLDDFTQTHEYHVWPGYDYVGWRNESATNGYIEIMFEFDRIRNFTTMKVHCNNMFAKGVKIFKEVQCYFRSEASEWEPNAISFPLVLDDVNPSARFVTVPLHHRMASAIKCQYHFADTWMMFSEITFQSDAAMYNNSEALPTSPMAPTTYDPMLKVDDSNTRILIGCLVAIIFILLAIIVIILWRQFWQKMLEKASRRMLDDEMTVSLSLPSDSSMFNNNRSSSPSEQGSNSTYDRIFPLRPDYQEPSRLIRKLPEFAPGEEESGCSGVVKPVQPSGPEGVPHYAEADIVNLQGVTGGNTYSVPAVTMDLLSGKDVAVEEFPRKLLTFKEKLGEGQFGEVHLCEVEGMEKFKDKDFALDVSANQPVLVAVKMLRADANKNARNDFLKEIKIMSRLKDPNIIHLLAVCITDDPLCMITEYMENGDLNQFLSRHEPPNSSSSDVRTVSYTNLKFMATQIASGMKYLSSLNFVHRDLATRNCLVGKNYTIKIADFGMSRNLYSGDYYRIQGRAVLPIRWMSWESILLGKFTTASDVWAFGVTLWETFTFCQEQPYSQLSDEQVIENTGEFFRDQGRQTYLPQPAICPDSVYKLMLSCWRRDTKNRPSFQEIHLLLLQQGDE

With `Cc1ccc(-c2cnc([C@@]3(O)CC[C@H](C(=O)O)C(C)(C)C3)s2)cc1Nc1cccc(C(F)(F)F)n1` [MRL-SYKi-NC] the residual activity [1] was 100%, the residual activity [2] was 100% and the residual activity [3] was 60.7%. The residual activity [4] was 100%, the residual activity [5] was 100% and the residual activity [6] was 100%. The residual activity [7] was 94.3%, the residual activity [8] was 100% and the residual activity [9] was 100%. It also gave a residual activity [10] of 84%, a residual activity [11] of 76.2% and a residual activity [12] of 100%. For the same compound, the residual activity [13] was 99.3%, the residual activity [14] was 100% and the residual activity [15] was 78.6%. For the same compound, the residual activity [16] was 81.2%, the residual activity [17] was 100% and the residual activity [18] was 90.2%. The residual activity [19] was 100%, the residual activity [20] was 97.7% and the residual activity [21] was 100%. For the same compound, the residual activity [22] was 78.7%, the residual activity [23] was 49.8% and the residual activity [24] was 100%. It also gave a residual activity [25] of 90%, a residual activity [26] of 75% and a residual activity [27] of 100%. It also gave a residual activity [28] of 98.7%, a residual activity [29] of 70.5% and a residual activity [30] of 59.6%. The residual activity [31] was 89.4%, the residual activity [32] was 69.9% and the residual activity [33] was 97.2%. The residual activity [34] was 82.6%, the residual activity [35] was 100% and the residual activity [36] was 100%. It also gave a residual activity [37] of 91.2%, a residual activity [38] of 89.7% and a residual activity [39] of 100%. The residual activity [40] was 89.5%, the residual activity [41] was 84.7% and the residual activity [42] was 100%. It also gave a residual activity [43] of 100%, a residual activity [44] of 100% and a residual activity [45] of 100%. The residual activity [46] was 96.9%.
Work on `Cc1cc(Nc2nccc(C)n2)cc(-c2cnc([C@@]3(O)CC[C@H](C(=O)O)C(C)(C)C3)s2)c1` [MRL-SYKi] yielded a residual activity [1] of 100%, a residual activity [2] of 100% and a residual activity [3] of 100%. For the same compound, the residual activity [4] was 86.1%, the residual activity [5] was 85.4% and the residual activity [6] was 87.6%. For the same compound, the residual activity [7] was 89.6%, the residual activity [8] was 100% and the residual activity [9] was 96.1%. The residual activity [10] was 85.6%, the residual activity [11] was 97.3% and the residual activity [12] was 100%. For the same compound, the residual activity [13] was 100%, the residual activity [14] was 94% and the residual activity [15] was 34.7%. For the same compound, the residual activity [16] was 81.9%, the residual activity [17] was 98.9% and the residual activity [18] was 99.9%. The residual activity [19] was 100%, the residual activity [20] was 75.6% and the residual activity [21] was 100%. It also gave a residual activity [22] of 100%, a residual activity [23] of 80.7% and a residual activity [24] of 73%. For the same compound, the residual activity [25] was 29.5%, the residual activity [26] was 94.8% and the residual activity [27] was 100%. It also gave a residual activity [28] of 100%, a residual activity [29] of 100% and a residual activity [30] of 95.9%. For the same compound, the residual activity [31] was 98.7%, the residual activity [32] was 100% and the residual activity [33] was 100%. It also gave a residual activity [34] of 90.3%, a residual activity [35] of 95.5% and a residual activity [36] of 100%. For the same compound, the residual activity [37] was 93%, the residual activity [38] was 97.7% and the residual activity [39] was 64.4%. The residual activity [40] was 100%, the residual activity [41] was 97.5% and the residual activity [42] was 49.5%. For the same compound, the residual activity [43] was 100%, the residual activity [44] was 100% and the residual activity [45] was 68.6%. For the same compound, the residual activity [46] was 92.5%.
